US8466162B2, “5-alkynyl-pyridines” (Boehringer Ingelheim International GmbH, priority 2011, dated 2013)

What was measured:
MB453 cells = assay: alamarBlue MB453 cell assay (antiproliferative/cytotoxicity); format: cell-based; details: Homo sapiens; MDA MB 453 breast cancer cell line
From the text: (§1) The H460, MB453, U87, MCF7 and BT474 alamarBlue cell assays provide EC50 values indicative of the antiproliferative or cytotoxic effects of the compounds to respectively the H460 (human non small cell line cancer), MB-453 (breast cancer cell line), U87 (glioblastoma cell line), MCF7 (breast cancer cell line) and BT474 (breast cancer cell line). As known in the field, antiproliferative or cytotoxic effect against this cell lines would be expected to be indicative of activity in treating lung, breast and brain cancers. See R. Marone R et al. Biochim. Biophys. Acta. 2008 January; 1784(1):159-85. S. Yaguchi et al., J. Natl. Cancer Inst. 2006 Apr. 19; 98(8):545-56.
(§2) Method Type: Antiproliferative/Cytotoxicity
(§3) alamarBlue® is designed to provide a rapid and sensitive measure of cell proliferation and cytotoxicity in various human and animal cell lines. The assay is based on the reduction of alamarBlue in the reducing environment of living (metabolically active) cells. In the presence of added cytotoxic or antiproliferative compounds, the innate metabolic activity ceases.
(§4) AlamarBlue is soluble and stable in culture medium. Measurements are made fluorometrically by exciting at 530-560 nm and measuring emission at 590 nm. In reporting percent alamarBlue reduction by monitoring fluorescence, data are expressed as fluorescence emission intensity units as a function of time of incubation.
(§5) 3. Equipment • 96-well plates, flat bottom (Falcon, Cat. No.: 353072) • 96-well plates, U-shaped (Costar, Cat. No.: 3799) • CO2-Incubator • Microplate Reader, Spectramax Plus, Molecular Devices 4. Typical Procedure • Day 0: Seed 3000 BT-474 cells (IMDM/5% FCS, 1% NEAA, 1% Sodiumpyruvat) in 150 μl medium into a 96-well plate, flat bottom (include mediumblank). Incubate plates at 37° C. in a CO2 incubator overnight. • Day 1: Dilute compounds to a concentration 40 μM ->1:3 in medium, 10 dilution steps, in 96-well plates. • Add 50 μl per well of each dilution (total volume per well 200 μl; final conc. of cpds: 10 μM ->1:3). If required, test further dilutions. • All concentrations are tested in duplicates. • Controls: Cells w/o cpd. (+50 μl medium/DMSO). • Cells are incubated with compounds for 5-6 days. • Day 6 or 7: Add 25 μl of alamarBlue solution to each well and incubate for 8 hours at 37° C. Measure fluorescence by exciting at 530-560 nm and measuring emission at 590 nm 5. Evaluation • Subtract average value for medium blank from sample readings • Calculate EC50 using GraphPad Prism (Fifty)

U87 cells = assay: alamarBlue U87 cell assay (antiproliferative/cytotoxicity); format: cell-based; details: U-87MG human glioblastoma cells
From the text: as §1, §2, §3, §4, §5

BT474 cells = assay: alamarBlue BT474 cell assay (antiproliferative/cytotoxicity); format: cell-based; details: BT-474 human breast cancer cell line, 5-6 days incubation
Method in brief: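 Cells were seeded at 3000 per well (BT474 in IMDM/5% FCS, 1% NEAA, 1% sodium pyruvate) and left overnight at 37° C. Compounds were added in duplicate at a final top concentration of 10 μM, diluted 1:3 over 10 steps, and incubated 5-6 days. alamarBlue fluorescence after 8 h gave blank-subtracted EC50 values.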

MCF7 cells = assay: alamarBlue MCF7 cell assay (antiproliferative/cytotoxicity); format: cell-based; details: MCF7 human breast cancer cell line
Method in brief: (§6)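 Read-out: alamarBlue reduction by metabolically active cells, fluorescence ex 530-560 nm/em 590 nm, measured 8 h after dye addition at 37° C. Cells had been exposed to compound for 5-6 days over a 10-point 1:3 series starting at 10 μM final. EC50 derived after medium-blank subtraction.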

PI3Kalpha = biological target: T1, PI3Kalpha (Homo sapiens, UniProt P42336); assay: Inhibition of PI3Kalpha-induced PIP-2 phosphorylation (filter-binding assay, 33P-ATP); format: biochemical; details: PI3 Kinase alpha (p85alpha/His-p110alpha), 1 μM ATP; read-out: IC50 PI3Kα
T1 construct: His (N); made in house; host or cells: SF9 insect cells (baculovirus co-infection)

H460 cells = assay: alamarBlue H460 cell assay (antiproliferative/cytotoxicity); format: cell-based; details: NCI-H460; H460 human lung carcinoma cells
Method in brief: as §6

T1 sequence (P27986 whole entry): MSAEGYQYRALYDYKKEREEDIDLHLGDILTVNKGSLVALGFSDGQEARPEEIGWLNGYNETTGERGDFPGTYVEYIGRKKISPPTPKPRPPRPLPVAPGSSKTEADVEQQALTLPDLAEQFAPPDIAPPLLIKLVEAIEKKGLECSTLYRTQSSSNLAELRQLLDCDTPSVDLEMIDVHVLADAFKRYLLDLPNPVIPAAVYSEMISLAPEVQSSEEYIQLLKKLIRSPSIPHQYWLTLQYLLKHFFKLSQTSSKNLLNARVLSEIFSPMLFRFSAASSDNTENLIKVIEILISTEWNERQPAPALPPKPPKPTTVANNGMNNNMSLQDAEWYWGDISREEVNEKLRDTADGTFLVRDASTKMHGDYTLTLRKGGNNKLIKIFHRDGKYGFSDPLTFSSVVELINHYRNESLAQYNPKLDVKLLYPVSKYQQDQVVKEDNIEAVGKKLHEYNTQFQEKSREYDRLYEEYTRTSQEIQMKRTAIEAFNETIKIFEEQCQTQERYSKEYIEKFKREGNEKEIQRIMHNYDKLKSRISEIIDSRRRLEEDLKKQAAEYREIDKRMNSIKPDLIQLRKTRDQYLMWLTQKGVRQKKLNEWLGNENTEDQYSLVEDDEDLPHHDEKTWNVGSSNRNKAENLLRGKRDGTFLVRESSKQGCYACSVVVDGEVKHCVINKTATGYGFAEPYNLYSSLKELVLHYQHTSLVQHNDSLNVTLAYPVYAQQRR
T1 sequence (P42336 whole entry): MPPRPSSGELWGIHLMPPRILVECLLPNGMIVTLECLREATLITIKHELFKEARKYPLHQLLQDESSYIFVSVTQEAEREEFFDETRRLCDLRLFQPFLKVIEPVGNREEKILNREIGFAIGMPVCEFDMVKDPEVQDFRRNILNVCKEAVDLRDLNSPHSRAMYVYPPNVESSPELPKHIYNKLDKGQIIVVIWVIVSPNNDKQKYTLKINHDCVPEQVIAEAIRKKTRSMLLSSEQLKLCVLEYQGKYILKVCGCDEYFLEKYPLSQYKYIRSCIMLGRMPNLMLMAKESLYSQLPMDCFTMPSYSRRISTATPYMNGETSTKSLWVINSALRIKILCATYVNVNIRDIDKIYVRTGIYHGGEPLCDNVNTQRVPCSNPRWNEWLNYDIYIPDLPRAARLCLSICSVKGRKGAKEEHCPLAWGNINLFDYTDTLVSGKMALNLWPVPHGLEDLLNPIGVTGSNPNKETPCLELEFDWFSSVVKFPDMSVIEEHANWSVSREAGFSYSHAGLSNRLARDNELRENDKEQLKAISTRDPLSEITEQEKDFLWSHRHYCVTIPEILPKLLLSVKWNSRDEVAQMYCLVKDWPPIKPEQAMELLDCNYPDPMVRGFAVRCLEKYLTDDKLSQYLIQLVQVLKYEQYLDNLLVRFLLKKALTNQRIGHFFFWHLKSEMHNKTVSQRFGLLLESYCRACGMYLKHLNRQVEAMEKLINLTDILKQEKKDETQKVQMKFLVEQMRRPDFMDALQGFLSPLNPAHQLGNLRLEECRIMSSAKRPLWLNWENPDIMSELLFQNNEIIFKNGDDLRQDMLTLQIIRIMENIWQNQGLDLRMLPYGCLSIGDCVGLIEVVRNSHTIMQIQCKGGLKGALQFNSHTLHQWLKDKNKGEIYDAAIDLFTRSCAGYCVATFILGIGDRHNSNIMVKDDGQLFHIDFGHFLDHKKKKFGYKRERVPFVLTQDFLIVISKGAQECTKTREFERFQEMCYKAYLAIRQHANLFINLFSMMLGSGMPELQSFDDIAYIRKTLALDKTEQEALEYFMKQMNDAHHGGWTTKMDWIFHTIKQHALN

Row | Compound | EC50 (MB453 cells) [nM] | EC50 (U87 cells) [nM] | EC50 (BT474 cells) [nM] | EC50 (MCF7 cells) [nM] | IC50 (PI3Kalpha) [nM] | EC50 (H460 cells) [nM]
1 | CCc1ncnc(-c2cccc(C(F)(F)F)c2OC)c1C#Cc1cnc(C)c(NS(C)(=O)=O)c1 [Example 7, N-{5-[4-Ethyl-6-(2-methoxy-3-trifluoromethyl-phenyl)-pyrimidin-5-ylethynyl]-2-methyl-pyridin-3-yl}-methanesulfonamide] | 381 | 475 | 543 | 223 | 2 | 358
2 | CCc1nc(N)nc(-c2ccnc(C)c2)c1C#Cc1cnc(C)c(NS(=O)(=O)c2ccc(F)cc2F)c1 [Example 33, N-{5-[2-Amino-4-ethyl-6-(2-methyl-pyridin-4-yl)-pyrimidin-5-ylethynyl]-2-methyl-pyridin-3-yl}-2,4-difluoro-benzenesulfonamide] | 45 | 224 | 33 | 9 | 0.45 | 70
3 | COc1ccc(-c2ncnc(C)c2C#Cc2cnc(OC)c(NS(=O)(=O)c3ccc(F)cc3F)c2)cc1OC [Example 45, N-{5-[4-(3,4-Dimethoxy-phenyl)-6-methyl-pyrimidin-5-ylethynyl]-2-methoxy-pyridin-3-yl}-2,4-difluoro-benzenesulfonamide] | 34 | 131 | 10 | 5 | 1 | 11
4 | Cc1ncc(C#Cc2c(C)ncnc2-c2ccc(C(=O)N3CCN(C)CC3)c(F)c2)cc1NS(C)(=O)=O [Example 37, N-(5-{4-[3-Fluoro-4-(4-methyl-piperazine-1-carbonyl)-phenyl]-6-methyl-pyrimidin-5-ylethynyl}-2-methyl-pyridin-3-yl)-methanesulfonamide] | 685 | 3040 | 1020 | 4000 | 5 | 25000
5 | CCc1ncnc(-c2ccccc2F)c1C#Cc1cnc(C)c(NS(C)(=O)=O)c1 [Example 57, N-{5-[4-Ethyl-6-(2-fluoro-phenyl)-pyrimidin-5-ylethynyl]-2-methyl-pyridin-3-yl}-methanesulfonamide] | 1620 | 2660 | 1080 | 541 | 8 | 3140
6 | CCc1ncnc(-c2ccc(C(=O)N3CCN(C)CC3)c(F)c2)c1C#Cc1cnc(C)c(NS(=O)(=O)c2ccc(F)cc2F)c1 [Example 27, N-(5-{4-Ethyl-6-[3-fluoro-4-(4-methyl-piperazine-1-carbonyl)-phenyl]-pyrimidin-5-ylethynyl}-2-methyl-pyridin-3-yl)-2,4-difluoro-benzenesulfonamide] | 33 | 75 | 51 | 11 | 0.5 | 192
7 | Cc1cc(-c2ncnc(C)c2C#Cc2cncc(NS(C)(=O)=O)c2)ccn1 [Example 95, N-{5-[4-Methyl-6-(2-methyl-pyridin-4-yl)-pyrimidin-5-ylethynyl]-pyridin-3-yl}-methanesulfonamide] | 483 | 391 | 1650 | 407 | 2 | 2020
8 | CCc1ncnc(-c2ccc(F)cc2F)c1C#Cc1cnc(C)c(NS(C)(=O)=O)c1 [Example 63, N-{5-[4-(2,4-Difluoro-phenyl)-6-ethyl-pyrimidin-5-ylethynyl]-2-methyl-pyridin-3-yl}-methanesulfonamide] | 1180 | 1880 | 1540 | 734 | 4 | 1110
9 | CCc1ncnc(-c2cccc(CN(C)C)c2)c1C#Cc1cnc(C)c(NS(C)(=O)=O)c1 [Example 2, N-{5-[4-(3-Dimethylaminomethyl-phenyl)-6-ethyl-pyrimidin-5-ylethynyl]-2-methyl-pyridin-3-yl}-methanesulfonamide] | 394 | 1230 | 588 | 439 | 7 | 2820
10 | CCc1ncnc(-c2cc(C)nc(C)c2)c1C#Cc1cnc(C)c(NS(C)(=O)=O)c1 [Example 6, N-{5-[4-(2,6-Dimethyl-pyridin-4-yl)-6-ethyl-pyrimidin-5-ylethynyl]-2-methyl-pyridin-3-yl}-methanesulfonamide] | 49 | 243 | 104 | 28 | 1 | 169
11 | CCc1cc(-c2ncnc(CC)c2C#Cc2cnc(C)c(NS(C)(=O)=O)c2)ccn1 [Example 5, N-{5-[4-Ethyl-6-(2-ethyl-pyridin-4-yl)-pyrimidin-5-ylethynyl]-2-methyl-pyridin-3-yl}-methanesulfonamide] | 54 | 220 | 117 | 34 | 0.63 | 159
12 | CCc1ncnc(-c2ccc(OC)c(F)c2)c1C#Cc1cnc(C)c(NS(C)(=O)=O)c1 [Example 8, N-{5-[4-Ethyl-6-(3-fluoro-4-methoxy-phenyl)-pyrimidin-5-ylethynyl]-2-methyl-pyridin-3-yl}-methanesulfonamide] | 184 | 910 | 279 | 99 | 1 | 241
13 | CCc1ncnc(-c2ccc(CNC(=O)OC(C)(C)C)nc2)c1C#Cc1cnc(C)c(NS(=O)(=O)c2ccccc2C(F)(F)F)c1 [Example 49, (5-{6-Ethyl-5-[6-methyl-5-(2-trifluoromethyl-benzenesulfonylamino)-pyridin-3-ylethynyl]-pyrimidin-4-yl}-pyridin-2-ylmethyl)-carbamic acid tert-butyl ester] | 169 | 241 | 207 | 57 | 2 | 120
14 | CCc1ncnc(-c2ccnc(C)c2)c1C#Cc1cnc(C)c(NS(=O)(=O)c2ccc(OC)cc2)c1 [Example 87, N-{5-[4-Ethyl-6-(2-methyl-pyridin-4-yl)-pyrimidin-5-ylethynyl]-2-methyl-pyridin-3-yl}-4-methoxy-benzenesulfonamide] | 505 | 887 | 381 | 372 | 5 | 240
15 | CCc1ncnc(-c2ccc(C)nc2)c1C#Cc1cnc(C)c(NS(=O)(=O)c2ccc(F)cc2F)c1 [Example 9, N-{5-[4-Ethyl-6-(6-methyl-pyridin-3-yl)-pyrimidin-5-ylethynyl]-2-methyl-pyridin-3-yl}-2,4-difluoro-benzenesulfonamide] | 36 | 248 | 24 | 7 | 0.54 | 49
16 | CCc1ncnc(-c2cccc(OC(C)C)c2)c1C#Cc1cnc(C)c(NS(C)(=O)=O)c1 [Example 64, N-{5-[4-Ethyl-6-(3-isopropoxy-phenyl)-pyrimidin-5-ylethynyl]-2-methyl-pyridin-3-yl}-methanesulfonamide] | 621 | 888 | 615 | 309 | 2 | 606
17 | CCc1ccccc1S(=O)(=O)Nc1cc(C#Cc2c(CC)ncnc2-c2ccnc(C)c2)cnc1C [Example 88, 2-Ethyl-N-{5-[4-ethyl-6-(2-methyl-pyridin-4-yl)-pyrimidin-5-ylethynyl]-2-methyl-pyridin-3-yl}-benzenesulfonamide] | 330 | 704 | 175 | 65 | 9 | 140
18 | CCc1ncnc(-c2ccccc2)c1C#Cc1cnc(C)c(NS(C)(=O)=O)c1 [Example 52, N-[5-(4-Ethyl-6-phenyl-pyrimidin-5-ylethynyl)-2-methyl-pyridin-3-yl]-methanesulfonamide] | 452 | 1020 | 520 | 154 | 3 | 1210
